Structures are written as SMILES.

By melting point is commonly meant the temperature, or range, at which the solid turns liquid. As to `Cc1c(Br)c2c(c(C)c1NC(=O)OC(C)(C)C)C(N1CCCC1)C(C)(C)O2` (centres undefined), the melting point lay within 128 to 130 °C. `CC(C)Oc1ccc(CCCOc2cc(CCC(=O)O)n(C3CCCCC3)n2)c(Oc2ncc(C(F)(F)F)cc2Cl)c1` gave a melting point of 114 to 115 °C. The figure for `CCCn1cc2c(C3C(=O)Nc4ccc(Br)cc43)nc(NCC3CCCO3)nc2n1` (centres undefined) is 309 to 312 °C; for `CC1CC2=CC(=O)CCC2C2C(O)CC3(C)C(=O)CCC3C12` (centres undefined) it is 200 °C; for `Fc1ccc(-c2[nH]cc(C3CCN4CCCC4C3)c2-c2ccncc2)cc1` (centres undefined) it is 263 to 265 °C.

`CC(NC(=O)Cc1cc(F)cc(F)c1)C(=O)NC1C(=O)NC(c2ccncc2)c2ccccc21` (centres undefined) returned a melting point of 100 °C. On to `CCCN1CC(NC(=O)C(C)(C)C)CC2c3cccc4[nH]c(Br)c(c34)CC21` (centres undefined), for which the melting point lay within 182 to 183 °C.

In the case of `NC(=S)C1CCCc2cccnc21` (centres undefined), the melting point turned out to be 160 °C. The same measure for `CCCc1nc(C(C)C)c(C(=O)OCc2ccc(-c3ccccc3C(=O)C(=O)O)cc2)[nH]1`: 177 to 178 °C; for `CC[C@H](NS(=O)(=O)c1ccc(OC)cc1)C(=O)OC`: 64 °C. The figure for `CC(C)NCc1ccc(COc2cccc3c2CN(C2CCC(=O)NC2=O)C3=O)cc1` (centres undefined) is 165 to 167 °C. `N#Cc1ccc(NC2CCN(Cc3cccc(C(F)(F)F)c3)CC2)nc1` yielded a melting point of 112 °C.

In the case of `Cc1cc(I)ccc1N=C=S`, the melting point was 51 to 53 °C. The same measure for `CCCCCCOc1cccc(C[C@H](NC(=O)c2cccc(-c3ncco3)c2)[C@H](O)CNCc2cccc(CC)c2)c1`: 117 to 120 °C; for `O=C(O)C(=O)c1ccc(OCCCNC(=O)c2ccc3ccccc3c2)cc1`: 169 to 170 °C. The same measure for `CCCCCCCCCCC(=O)c1ccncc1`: 51 to 52 °C. The same measure for `Cc1c(O)nc2ccccc2c1C(=O)O`: greater than 300 °C.

`N#CCCN1C(=O)C2(OCCCO2)c2ccc(Cl)cc21`: the melting point lay in the range of 163 to 164 °C. The figure for `O=[N+]([O-])c1ccc2ncccc2c1O` is 245 °C; for `CO/C=C(/C(=O)OC)c1ccccc1Oc1cc(Cl)nc(Cl)n1` it is 88 to 90 °C. `Nc1cc(Br)cc(Br)c1O` registered a melting point of 175 to 176 °C.

In turn, `Cn1nnnc1C(CO)=C(c1ccc(F)cc1)c1ccc(F)cc1` registered a melting point of 141 to 142 °C. The figure for `CCOC(=O)c1cnc2c3cc(NC(=O)C(C)C(C)CC)ccc3c(C)cn2c1=O` (centres undefined) is 216 to 218 °C. The same measure for `CO[C@@H]1[C@@H](OC)[C@H](C)O[C@@H](OC(=O)Nc2ccc(-c3ncn(-c4ccc(OC(F)(F)F)cc4)n3)cc2)[C@@H]1OC`: 186 to 188 °C; for `O=S(=O)(c1ccccc1)N1CCC(C(=NCCc2ccccc2)c2ccc(F)cc2)CC1`: 123 to 126 °C. As to `N#Cc1ccc(-c2cccc(-c3cn4cc(C#N)ccc4n3)c2)cc1`, the melting point fell in the range of 290 to 292 °C.

In the case of `CN1C(=O)C=C[C@]2(C)c3ccc(-c4cccc5ccccc45)cc3CC[C@@H]12`, the melting point is 172 to 173 °C. For `Cc1ccc(-c2nn(-c3cccc(C(=O)O)c3)c(N)c2C(N)=O)cc1`, the melting point was 232 to 235 °C.

Regarding `CCCOC(=O)Nc1cnc(OCCC)c(-c2nc3c(CCC)nn(C)c3c(=O)[nH]2)c1`, the melting point is 210 to 211 °C. For `Fc1ccc(-c2cnc3ccccc3n2)cc1`, the melting point was 122 °C. The figure for `COc1nc2cc(Cl)c(F)c(CS(N)(=O)=O)c2nc1OC` is 227 to 228 °C; for `CC(C)(C)OC(=O)Nc1cc(N2CCC3(CC2)OCCO3)c(-c2ccccc2F)cc1[N+](=O)[O-]` it is 164 °C; for `CC(C)(C)C(=O)CCSC(=S)Nc1ccc(Cl)cn1` it is 111 °C. In turn, `CN(C)Cc1cccc(OCCCNc2nc(-c3ccccc3)n[nH]2)c1` had a melting point of 126 to 128 °C. In turn, `c1cc(CC[C@H]2CNCCN2)co1` registered a melting point of 112 to 114 °C. The figure for `CCC(CC)Nc1cc(-c2c(-c3cccc(C)c3)nc3cccnn23)ccn1` is 155 to 156 °C; for `O=P(O)(O)Cc1cccc(C(F)(F)F)c1` it is 163 to 164 °C. The same measure for `O=[N+]([O-])c1ccc(N2CCCC2)c(S(=O)(=O)O)c1`: 178 to 179 °C; for `CCc1ccc([N+]([O-])=Cc2ccc(C)cc2)cc1`: 97 to 99 °C; for `O=C(CCC(C(=O)O)N1C(=O)c2ccccc2C1=O)OCc1ccccc1` (centres undefined): 96 to 98 °C. The same measure for `CCCCCCCCCCCCCCOc1ccc(C(=O)OCC)cc1`: 34 to 35 °C; for `CC(C)C(=O)c1cc(O)c(O)c([N+](=O)[O-])c1`: 98 to 99 °C; for `OC(c1ccc(F)cc1)(c1ccc(F)cc1)C1CCN(CCCOc2ccc(-c3ccccc3)cc2)CC1`: 108 to 109 °C.

In turn, `Cn1cc(-c2cc3cccnc3[nH]2)c2cc(OCC(=O)O)ccc21` returned a melting point greater than 300 °C. Regarding `CCOc1ccccc1-c1nc2n(C3CCCC3)[nH]c(CC)c-2c(=O)n1`, the melting point fell in the range of 146 to 147 °C.

With `CC(=Cc1ncon1)c1ccc(Cl)cc1`, the melting point was 56 to 57 °C. The figure for `CCOC(=O)c1c(Cn2cncn2)nc2sc3c(c2c1-c1ccc(OC)c(OC)c1)CCN(C(=O)c1ccccc1)C3` is 193 to 194 °C. Regarding `O=C(/C=C/C=C(c1ccccc1C(F)(F)F)c1ccccc1C(F)(F)F)NCCCCc1cccnc1`, the melting point is 110 to 112 °C. In turn, `COC1(c2cccc(OCc3ccc4ccccc4c3)c2)CC(C)OC(C)C1` (centres undefined) showed a melting point of 105 to 107 °C.

For `O=C(O)c1cccc(N2CCC(N=Cc3ccccc3)=N2)c1`, the melting point turned out to be 185 °C. Regarding `O=C1c2c(n3c4c(cccc24)OCC3c2ccccc2)CCC1(Cl)Cl` (centres undefined), the melting point stood at 104 °C. The same measure for `CCOP(=O)(Cc1cc(C)cc(C)n1)OCC`: 109 to 112 °C; for `Cc1cc(C)nc(NC(=O)NS(=O)(=O)c2ccccc2C(Cl)Cl)n1`: 195 to 197 °C; for `O=[N+]([O-])c1cnccc1NCC(O)CO` (centres undefined): 131 to 135 °C.

The compound `CCCCCC(=O)n1c(=O)n(CCCC)c(=O)n1C(=O)CCCCC` had a melting point of 88 to 89 °C. In turn, `COc1ccc(COCc2nccn2CCO)cc1` came in with a melting point of 96 to 98 °C.

In turn, `COc1cccc(OC)c1C(=O)Nc1nnc(C2SCCCS2)s1` had a melting point of 200 to 208 °C. The figure for `NS(=O)(=O)c1cc(NC(=O)c2cnn3c(C(F)F)cc(-c4ccc(C(F)(F)F)cc4)nc23)c(Cl)s1` is 298 °C. For `Cc1ccc(S(=O)(=O)OCC2Cc3cccc(-c4ccsc4)c3O2)cc1` (centres undefined), the melting point was in the range of 90 to 92 °C. In turn, `C=C1COc2ccc(C(=O)OC)cc2C(Cc2ccccc2)(S(=O)(=O)c2ccccc2)C1` (centres undefined) yielded a melting point of 164 to 165 °C.

As for `CNC(=O)C1CN(C(=O)/C=C/C2=C(C)CCCC2(C)C)CCN1C(N)=O` (centres undefined), the melting point is 100 to 112 °C. Compound `N=C(NC1CC1)N[N+](=O)[O-]` came in with a melting point of 127 to 130 °C. `CN(Cc1cc(C(F)(F)F)cc(C(F)(F)F)c1)C(=O)c1nc(N2CCOCC2)ncc1-c1ccccc1`: the melting point was 154 to 155 °C. The figure for `O=[N+]([O-])c1cnc(Sc2cnccn2)s1` is 129 to 130 °C.

These data come from a melting point compilation (Tetko et al.; mined from patent text by program, amines drawn as free bases though some values may be those of a salt).
